This note sets out measurements from article PMC8070745, “FEN1 Blockade for Platinum Chemo-Sensitization and Synthetic Lethality in Epithelial Ovarian Cancers” (Cancers, 2021).

What all share (type): cell-based, human
The subject of one data set is PEO4 cells. Kind of data set: Clonogenic assay, PEO4. The protocol: (§1) Clonogenic assay: In the clonogenic assay (colony formation assays), 32 cells/cm2 were seeded in 6-well plates and left at 37°C in a 5% CO2 atmosphere. Cisplatin (5µM) and/or FEN1i (10µM) and/or Importazole (5 µM, Selleckem, S8446 ) were added at the indicated concentrations and the plates were left at 37 °C in a 5% CO 2 atmosphere for 14 days. Later, the plates were washed with PBS, fixed and stained with a crystal violet, acetic acid and methanol solution and colonies were counted. […]

In another data set the test system is PEO1R cells. Kind of data set: Clonogenic assay, PEO1R. The conditions noted are these: vs parental PEO1 cells. The method, then: as §1
A further data set concerns PEO1 cells. Kind of data set: Clonogenic assay, PEO1. The protocol:
as §1

For a further data set, the system named is PEO1R spheroids. Kind of data set: 3D spheroid assay, PEO1R. The settings on record: vs PEO1 spheroids. The protocol: (§2) with ice cold PBS and fixed in 70% ethanol for 1h at -20°C. After removal of the fixative solution by centrifugation, cells were stained with 2 µg/ml of phospho-Histone (γH2AX) Ser139 (16202A, Millipore, UK) to detect DSBs.
(§3) Cell cycle progression: Cells were treated with 20 µg/ml RNase A (12091021, Invitrogen) and then 10 µg/ml Propidium Iodide (P4170, Sigma Aldrich) was added to determine the cell cycle distribution. The samples were analysed on a Beckman-Coulter FC500 flow cytometer using a 488nm laser for excitation and emission data for PI collected using a 620nm bandpass filter (FL3) and a 525nm bandpass filter (FL1) for FITC-anti-phospho-Histone H2A.X.
(§4) Apoptosis detection: Annexin V detection kit (556547, BD Biosciences) was used to quantify apoptotic cells. Briefly, cells were trypsinized, washed with PBS and the cellular pellet was re-suspended in Anexin Binding Buffer (1×). […] All the samples were analysed on a Beckman-Coulter FC500 flow cytometer. The percentage of apoptotic cells was determined (late apoptotic = FITC-Annexin V positive, PI positive early apoptotic = FITC-Annexin V positive, PI negative; live cells = FITC-Annexin V negative, PI negative) and compared for untreated and treated samples. […]
(§5) To quantify cell viability, LIVE/DEAD Viability/Cytotoxicity Kit (L3224, Thermo Fisher Scientific) was used. […] At least 10 spheroids were measured. […]

For data set [1], the system named is A2780cis cells. Kind of data set: Clonogenic assay, A2780cis. The protocol:
as §1

Data set [2] concerns A2780cis cells. Kind of data set: γH2AX analysis, A2780cis. The settings on record: FEN1i plus cisplatin. The method, then: Graphical representation and statistical analysis of mean tail moment was performed in GraphPad Prism 6 (GraphPad, La Jolla, USA). All experiments were done in duplicate three times.
γH2AX FACS: For monitoring DNA double strand break accumulation by γH2AX FACS, 1.05×104 Cells/cm2 were seeded in 6-well plates and left overnight at 37°C in a 5% CO 2 atmosphere. Cisplatin (5µM) or FEN1i (10µM) was later added to cells and incubated for 24h and 48h at 37°C in a 5% CO2 atmosphere. Cells were collected by trypsinization, washed […]
as §2
Cell cycle progression: Cells were treated with 20 µg/ml RNase A (12091021, Invitrogen) and then 10 µg/ml Propidium Iodide (P4170, Sigma Aldrich) was added to determine the cell cycle distribution. The samples were analysed on a Beckman-Coulter FC500 flow cytometer using a 488nm laser for excitation and emission data for PI collected using a 620nm bandpass filter (FL3) and a 525nm bandpass filter (FL1) for FITC-anti-phospho-Histone H2A.X. […]
Graphical representation and statistical analysis was performed in GraphPad Prism 7 (GraphPad, La Jolla, USA). […]

In another data set the test system is A2780cis spheroids. Briefly: 3D spheroid assay, A2780cis. The settings on record: FEN1i/cisplatin combination vs cisplatin or FEN1i monotherapy. The method, then:
as §2, §3, §4, §5

The next data set relates to POLβ KO A2780cis cells. Briefly: Clonogenic assay, POLβ KO A2780cis. The conditions noted are these: vs POLβ proficient A2780cis. The protocol: as §1

For `N.N.[Cl][Pt][Cl]` [cisplatin], the results for the cisplatin sensitivity result in the data set on PEO4 cells, in the data set on PEO1 cells and in the data set with A2780cis cells [1] were “cisplatin resistant”, “cisplatin sensitive” and “cisplatin-resistant”, respectively. For the same compound, the sensitivity to cisplatin entry in the data set on PEO1R cells is on record as “resistant”. Further, in the data set with PEO1R spheroids, the “spheroid sensitivity to cisplatin” value is on record as “resistant”.

Regarding `Cc1csc2c1c(=O)n(O)c(=O)n2-c1ccccc1` [PTPD, 3-hydroxy-5-methyl-1-phenylthieno [2,3 d]pyrimidine-2,4(1H,3H)-dione], in the data set on A2780cis cells [2], the γH2AX nuclear foci result is “induced nuclear γH2AX nuclear foci accumulation”. Further, the “effect on cisplatin cytotoxicity” value is “potentiated cisplatin cytotoxicity” in the data set on PEO4 cells (FEN1i plus cisplatin) and “significantly enhanced the cytotoxicity of cisplatin” in the data set on A2780cis cells [1] (FEN1i 10 µM plus cisplatin). The “sensitivity to FEN1 inhibitor” value was “resistant” in the data set on PEO1R cells, “more sensitive to FEN1 inhibition in comparison to PEO4 cells” with PEO1 cells (BRCA2 deficient PEO1 vs BRCA2 proficient PEO4) and “more sensitive to FEN1 inhibition” in the data set with POLβ KO A2780cis cells. For the same compound, in the data set on A2780cis spheroids, the “cell death in 3D-spheroids” value is “increased cell death”. The “spheroid sensitivity to FEN1 inhibitor” value in the data set on PEO1R spheroids is recorded as “resistant”. Also, in the data set with A2780cis cells [1] (10 µM), the “cytotoxicity of FEN1i monotherapy” value is on record as “non-toxic”.
